In one test the target is T1, ST3Gal1 (Sus scrofa, UniProt Q02745).
T1 construct: Δ45, N-terminal 6xHis-MBP fusion
T1 sequence (Q02745 46-343): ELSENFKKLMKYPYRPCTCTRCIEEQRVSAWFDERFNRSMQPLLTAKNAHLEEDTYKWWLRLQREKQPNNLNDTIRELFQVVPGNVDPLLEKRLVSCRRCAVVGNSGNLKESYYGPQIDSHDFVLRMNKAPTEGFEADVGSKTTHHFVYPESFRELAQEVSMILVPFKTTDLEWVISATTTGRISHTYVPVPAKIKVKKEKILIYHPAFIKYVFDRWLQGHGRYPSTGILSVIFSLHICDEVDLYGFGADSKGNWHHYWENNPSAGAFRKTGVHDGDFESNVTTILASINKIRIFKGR
Briefly: SPR (CM5 chip, immobilized purified ST3Gal1). Format: binding.

In a further test the target is T2, ST6Gal1 (Homo sapiens, UniProt P15907).
T2 construct: Δ131, 3xFLAG
T2 sequence (P15907 132-406): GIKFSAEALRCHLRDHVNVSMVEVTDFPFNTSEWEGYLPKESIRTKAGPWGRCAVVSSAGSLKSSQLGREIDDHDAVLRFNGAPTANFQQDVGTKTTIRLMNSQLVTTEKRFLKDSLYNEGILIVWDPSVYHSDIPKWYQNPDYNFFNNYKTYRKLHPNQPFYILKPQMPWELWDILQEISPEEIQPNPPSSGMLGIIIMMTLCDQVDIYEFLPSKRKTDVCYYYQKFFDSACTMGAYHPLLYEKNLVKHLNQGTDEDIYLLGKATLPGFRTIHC
Put plainly: SPR (CM5 chip, immobilized purified ST6Gal1). In kind it is binding. From the text: SPR (CM5 chip, immobilized purified ST6Gal1) on ST6Gal1 | Pull-down and SPR analyses confirmed that Y-320 binds to ST6Gal1 with high affinity

For `Cc1c(C(=O)Nc2ccc(N3CCC(N4CCOCC4)CC3)c(C#N)c2)cnn1-c1ccc(Cl)cc1` [Y-320], the Kd on ST3Gal1 was 709 nM; on ST6Gal1, 885 nM.

What is called Kd is the constant that tells how readily two partners part at equilibrium.

Source of the values: publication PMC12550625, “A Potent Oral Sialylation Inhibitor Augments the Immunotherapy in Pancreatic Ductal Adenocarcinoma” (ACS Central Science, 2025).
